Format in all cases: functional, cell-based
The test system of one assay is HL-60. In words: Cytotoxicity against human HL60 after 48 hrs by MTT assay. Conditions: HL-60, 48 h.
The next assay relates to MCF7. In words: Cytotoxicity against human MCF7 after 48 hrs by MTT assay. Conditions: MCF7, 48 h.
The subject of the next assay is SW480. The experiment in a line: Cytotoxicity against human SW480 after 48 hrs by MTT assay. Conditions: SW480, 48 h.
The test system of a further assay is SMMC-7721. In words: Cytotoxicity against human SMMC7721 after 48 hrs by MTT assay. Conditions: SMMC-7721, 48 h.
Another assay concerns A549. In words: Cytotoxicity against human A549 after 48 hrs by MTT assay. Conditions: A549, 48 h.

`C/C=C1/CN2CCc3c4n(c5ccccc35)/C=C3/[C@H]5C[C@@H]6N(CC[C@@]67c6ccccc6N(/C=C\4[C@H]1CC2=O)[C@@H]37)C/C5=C/C` [(15S,19E,2'S,3'S,7'R,15'S,19'E)-GARDOVATINE]: the concentration for half-maximal inhibition (IC50) with HL-60 turned out to be 9.8 µM; with MCF7, 13.9 µM; with SW480 it was 16.1 µM; in the assay with SMMC-7721, 10.5 µM; in the assay with A549 it was 14.2 µM.
The like results for `C/C=C1/CN2CC[C@]34c5ccccc5N5[C@H]3[C@H]([C@H]3O[C@]6([C@@H]7N3c3ccccc3[C@@]73CCN7C/C(=C/C)[C@@H]6C[C@H]73)[C@H]5OC)[C@H]1C[C@H]24` [DIVARINE] were, in that order, 1.2 µM, 3 µM, 1.6 µM, 3.2 µM and 3.2 µM.

For the origin of these results see ChEMBL document CHEMBL2429853, “Gardovatine, a novel Strychnos-Strychnos bisindole alkaloid with cytotoxicity from Gardneria oveta” (Bioorg Med Chem Lett, 2013).
